From PMC6243750, “Behavioral Evidence and Olfactory Reception of a Single Alarm Pheromone Component in Halyomorpha halys” (Frontiers in Physiology, 2018)

Assays:
H. halys OBP16 [1] = molecular target: T1, H. halys OBP16 (Halyomorpha halys, UniProt A0A1L2JGT7); test: Fluorescence binding of probe 1-NPN to OBP (Scatchard); conditions: dissociation constant of OBP16/1-NPN, 2 μM OBP, 50 mM Tris-HCl pH 7.4; read-out: KOBPx/1-NPN
T1 sequence (A0A1L2JGT7 23-177): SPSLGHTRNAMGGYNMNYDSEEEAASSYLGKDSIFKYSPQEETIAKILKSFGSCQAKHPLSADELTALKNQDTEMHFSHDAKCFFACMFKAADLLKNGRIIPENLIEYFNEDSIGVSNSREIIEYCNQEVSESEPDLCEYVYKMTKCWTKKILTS
Experimental: (§1) Emission fluorescence spectra were measured on a HORIBA FluoromMax®-4 fluorescence spectrophotometer in a right-angle configuration with a 1 cm light path quartz cuvette. The protein was dissolved in 50 mM Tris-HCl buffer, pH 7.4, while all ligands used in binding experiments were used as 1 mM methanol solutions. The excitation wavelength was 337 nm, and the range of the scanning emission wavelength was 380–450 nm.
(§2) The binding constants of OBPs with probe N-phenyl-1-naphtylamine (1-NPN) were determined. We first added 2 ml 50 mM Tris-HCl solution to the cuvette, then added the OBP until the concentration reached 2 μM, measured and recorded the emission spectrum, continued titration, and recorded the highest stable fluorescence intensity. The Scatchard equation was used to record the binding constant of each OPB with 1-NPN.

H. halys OBP8 [2] = molecular target: T2, H. halys OBP8 (Halyomorpha halys, UniProt A0A1N7TMV1); test: as above; conditions: dissociation constant of OBP8/1-NPN, 2 μM OBP, 50 mM Tris-HCl pH 7.4; read-out: KOBPx/1-NPN
T2 sequence (A0A1N7TMV1 23-143): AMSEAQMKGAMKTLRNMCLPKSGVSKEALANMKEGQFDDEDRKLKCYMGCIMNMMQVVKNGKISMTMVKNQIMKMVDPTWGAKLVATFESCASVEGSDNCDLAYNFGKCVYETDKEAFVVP
Experimental: as §1, §2

H. halys OBP25 [3] = molecular target: T3, H. halys OBP25 (Halyomorpha halys, UniProt A0A1L2JGT3); test: as above; conditions: dissociation constant of OBP25/1-NPN, 2 μM OBP, 50 mM Tris-HCl pH 7.4; read-out: KOBPx/1-NPN
T3 sequence (A0A1L2JGT3 20-148): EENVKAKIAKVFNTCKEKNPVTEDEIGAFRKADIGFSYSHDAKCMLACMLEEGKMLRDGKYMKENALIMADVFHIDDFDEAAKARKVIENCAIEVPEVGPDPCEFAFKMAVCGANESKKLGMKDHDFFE
Experimental: as §1, §2

H. halys OBP4 [4] = molecular target: T4, H. halys OBP4 (Halyomorpha halys, UniProt A0A1L2JGP5); test: as above; conditions: dissociation constant of OBP4/1-NPN, 2 μM OBP, 50 mM Tris-HCl pH 7.4; read-out: KOBPx/1-NPN
T4 sequence (A0A1L2JGP5 20-212): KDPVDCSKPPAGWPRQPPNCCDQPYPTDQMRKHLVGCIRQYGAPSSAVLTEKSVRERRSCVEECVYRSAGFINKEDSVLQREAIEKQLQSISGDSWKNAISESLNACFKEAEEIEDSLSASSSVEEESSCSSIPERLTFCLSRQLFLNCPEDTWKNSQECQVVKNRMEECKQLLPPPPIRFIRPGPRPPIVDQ
Experimental: as §1, §2

H. halys OBP30 [5] = molecular target: T5, H. halys OBP30 (Halyomorpha halys, UniProt A0A1P8P1N8); test: as above; conditions: dissociation constant of OBP30/1-NPN, 2 μM OBP, 50 mM Tris-HCl pH 7.4; read-out: KOBPx/1-NPN
T5 sequence (A0A1P8P1N8 19-136): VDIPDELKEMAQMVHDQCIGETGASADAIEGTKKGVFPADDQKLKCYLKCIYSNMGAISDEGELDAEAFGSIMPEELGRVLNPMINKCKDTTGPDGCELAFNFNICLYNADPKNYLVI
Experimental: as §1, §2

H. halys antennae = test: EAG recordings on excised antennae; parameters: species or system Halyomorpha halys; conditions: 10 μg dose, all developmental stages, versus n-hexane control
Experimental: EAG recordings were used to identify electrophysiological activities of H. halys at each developmental stage (female and male adults, and nymphal larvae). Each antenna of the brown marmorated stink bug was prepared following the standard procedures of cutting its tip and base and immediately mounting the excised antenna between two glass capillary Ag/AgCl electrodes filled with Kaissling saline (Tang et al., [2016]). The electrode at the distal end of the antenna was connected through an interface box to a signal acquisition interface board (IDAD; Syntech, Netherlands).
n-Hexane was used as the control, and 1 μg/μl (E)-2-decenal was used as the test solution. The measure dose was 10 μg, and the order of antennal exposure was air, n-hexane, and (E)-2-decenal. In total, 10 replicates were used. The direct voltage was 2 mv, the continuous flow velocity was 150 ml/min, the stimulated flow velocity was 20 ml/min, the stimulation time was 0.1 s, and the stimulus intervals were 10 s.
The following equation was used to calculate the EAG recording result:
Relative response value = sample response value − control response value.

H. halys adults = test: Grouped dispersal (repellency) test; type: in vivo, Halyomorpha halys; conditions: 10 μg, 60 s
Experimental: A group test was performed first to assess the repellency of (E)-2-decenal to H. halys adults. In total, 10–20 adults were collected and moved into a plastic rearing box for 1 h to let the adults aggregate and rest before the test. A filter paper loaded with 10 μg (E)-2-decenal was then put into a syringe, and the volatile was released into the air at a distance of 1 cm from the aggregated H. halys adults. The test lasted for 60 s, and the number of dispersed H. halys were counted and recorded. n-Hexane was used as the control following the same protocol. In total, 10 replicates were performed for each treatment.

H. halys OBP16 [6] = molecular target: T1, H. halys OBP16; test: Competitive fluorescence-binding assay with 1-NPN as probe
Experimental: as §1
(§3) The binding abilities of the OBPs and (E)-2-decenal were later investigated. Fluorescence intensities were automatically subtracted from blank fluorescence values when harvested from instrument. The excitation wavelength was set at 337 nm, and the range of the scanning emission wavelength was 380–450 nm. First, 2 mL 50-mM Tris-HCl solution was added, and then the OBP and 1-NPN were added until the concentration was 2 μM. The highest stable fluorescence intensity was record. Then, we added the (E)-2-decenal, which was dissolved in methanol in the cuvette, and continued the titration from 2 μM until the fluorescence intensity was stable. The highest stable fluorescence intensity was recorded. Each OBP was tested three times. The dissociation constant was calculated based on the formula Kd = [IC50]/(1 + [1-NPN]/K1−NPN), where IC50 represents the (E)-2-decenal concentration when the fluorescence intensity of [OBP/1-NPN] declined to the half of the highest value, [1-NPN] represents the dissociative concentration of 1-NPN, and K1−NPN represents the dissociation constant of OBP/1-NPN.

H. halys OBP8 [7] = molecular target: T2, H. halys OBP8; test: as above
Experimental: as §1, §3

H. halys OBP25 [8] = molecular target: T3, H. halys OBP25; test: as above
Experimental: as §1, §3

H. halys OBP4 [9] = molecular target: T4, H. halys OBP4; test: as above
Experimental: as §1, §3

H. halys OBP30 [10] = molecular target: T5, H. halys OBP30; test: as above
Experimental: as §1, §3

adult N. viridula = test system: adult N. viridula; parameters: method as in Lockwood and Story, 1987; conditions: ref Lockwood and Story, 1987; cited from earlier work
entomopathogenic fungi = test system: entomopathogenic fungi; parameters: method as in Weber et al., 2017b; conditions: ref Weber et al., 2017b; cited from earlier work
[11] = test system: H. halys adults and 1st to 5th instar nymphs; test: Route test with individual stink bugs on circular track; type: in vivo, Halyomorpha halys
Experimental: To identify the alarm pheromone activity in each developmental stage of H. halys (female and male adults, and 1st to 5th instar nymphs), we performed a behavioral test (Noge et al., [2015]) using a gradient of (E)-2-decenal solutions (10 μg/μl, 1 μg/μl, 100 ng/μl, 10 ng/μl, and 1 ng/μl) for the nymphs and the last four doses for both genders of adults. A circular track was made by joining the ends of a silicone tube (100 cm long, 1.2 cm inner diameter), and the track was placed on a tripod stand in the behavioral testing laboratory (25°C ± 1°C, relative humidity = 50% ± 10%). An individual H. halys was placed gently on the track and left for 5 min until it was motionless. Different 10-μl concentrations of (E)-2-decenal were loaded onto a filter paper disk (2 cm diameter), and the disk was then placed 2 mm from the stink bug's antenna. The time taken for the nymph or adult stink bug to change direction and the distance it moved away from the starting point within 15 s were observed and recorded. […] Every developmental stage of H. halys for each chemical treatment was tested 15 times.

H. halys = test system: H. halys; parameters: method as in Zhang et al., 2014a; conditions: combined with tridecane; ref Zhang et al., 2014a; cited from earlier work
male and female H. halys = test system: male and female H. halys; parameters: method as in Zhong et al., 2017; conditions: ref Zhong et al., 2017; cited from earlier work
[12] = Kd = [IC50]/(1 + [1-NPN]/K1-NPN), OBP and 1-NPN 2 μM
[13] = concentration at which [OBP/1-NPN] fluorescence declined to half

## c1ccc(Nc2cccc3ccccc23)cc1 [1-NPN, N-phenyl-1-naphtylamine]
H. halys OBP16 [1]
  Kd: 1130 ± 80 nM
H. halys OBP8 [2]
  Kd: 2740 ± 800 nM
H. halys OBP25 [3]
  Kd: 510 ± 300 nM
H. halys OBP4 [4]
  Kd: 9.18 ± 2.67 µM
H. halys OBP30 [5]
  Kd: 2790 ± 740 nM

## CCCCCCC/C=C/C=O [(E)-2-decenal]
H. halys antennae
  EAG responses: significantly greater electrophysiological responses compared with the n-hexane control, except for the 1st instar nymphs
H. halys adults
  Repellent rates: 84.1 ± 5.14%
H. halys OBP16 [6]; [12]
  Kd: 6.16 ± 0.42 µM
H. halys OBP16 [6]; [13]
  IC50: 13.7 ± 0.94 µM
H. halys OBP8 [7]; [12]
  Kd: 8.61 ± 0.24 µM
H. halys OBP8 [7]; [13]
  IC50: 13.7 ± 0.38 µM
H. halys OBP25 [8]; [12]
  Kd: 2210 ± 64 nM
H. halys OBP25 [8]; [13]
  IC50: 7.18 ± 0.21 µM
H. halys OBP4 [9]; OBP4, in words
  binding activity to (E)-2-decenal: did not show a good binding activity
H. halys OBP4 [9]; OBP4, Kd = [IC50]/(1 + [1-NPN]/K1-NPN), OBP and 1-NPN 2 μM
  Kd: 26 ± 3.01 µM
H. halys OBP4 [9]; OBP4, concentration at which [OBP/1-NPN] fluorescence declined to half
  IC50: 31.3 ± 3.61 µM
H. halys OBP30 [10]; [12]
  Kd: 10.5 ± 0.64 µM
H. halys OBP30 [10]; [13]
  IC50: 16.7 ± 1.01 µM
Adult N. viridula
  alarm effects: no alarm effects
Entomopathogenic fungi
  effect on entomopathogenic fungi: fungistatic effect and inhibits spore germination
[11]; 1 μg and 10 μg, all stages of H. halys
  repellence compared with n-hexane control: significantly repelled
[11]; 3rd to 5th instar nymphs, all tested doses, within 15 s
  moving distances compared with n-hexane control: significantly longer moving distances
[11]; 5th instar nymphs, response time
  repellent effect starting at a tested dose: 10 ng
H. halys
  feeding deterrence: strong feeding deterrent
Male and female H. halys
  repellence in Y-tube assays: strongly repel
